Consider 1 compound from EPA's ToxValDB 9.5 (doi:10.2903/j.efsa.2010.1554).

The test system of one data set is Daphnia magna. The following applies: chronic/long-term; duration: 21 days; reproduction.
In the next data set the test system is Anas platyrhynchos. The following applies: for LD50: oral, mortality.
The next data set deals with Canidae. Particulars: chronic; duration: 1 years; oral; Dog Other; organ weight.
The test system of a further data set is Rattus norvegicus. Particulars: for NOAEL: reproduction developmental.
In a further data set the test system is Apis mellifera. The following applies: acute; duration: 48 hours; dermal; mortality.
The subject of a further data set is Colinus virginianus. The following applies: acute, oral, mortality.

Each structure is given as a SMILES string. Values after ≈ are worked out from the molar mass of the structure shown.

Consider `COc1cc(OC)nc(NC(=O)NS(=O)(=O)c2c(-c3nnn(C)n3)cnn2C)n1` [Azimsulfuron], for which the NOEC in the data set with Daphnia magna turned out to be 5.4 mg/L; in the data set with Oncorhynchus mykiss (chronic/long-term, duration: 90 days, time to hatch), 6.3 mg/L; in the data set with Tagia sp. (chronic/long-term, duration: 56 days, reproduction) it was 12.5 mg/kg. Further, the LC50 in the data set with Oncorhynchus mykiss (acute, duration: 96 hours, mortality) was 154 µg/mL (≈ 363 µM); in the data set on Tagia sp. (acute, duration: 14 days, mortality), above 1000 mg/kg. Also, the LD50 with Anas platyrhynchos (acute, unspecified) was above 2250 mg/kg-day; in the data set on Anas platyrhynchos (short-term, feed) it was above 2040 mg/kg-day; in the data set on Rattus norvegicus (acute, oral, mortality) it was above 5000 mg/kg-day; with Apis mellifera it was above 25 µg/piece; in the data set on Colinus virginianus (diet), above 3150 mg/kg-day; with Colinus virginianus, above 2250 mg/kg-day. The NOEL with Anas platyrhynchos (reproductive) worked out at 172 mg/kg-day. The NOAEL (in general, the highest tested level that showed no adverse finding) came to 17.9 mg/kg-day in the data set with Canidae, 9.6 mg/kg-day with Rattus norvegicus (organ weight) and 76.6 mg/kg-day with Rattus norvegicus (reproduction).
